Holding throughout (assay type): biochemical
One assay concerns the target T1, human 17β-HSD1 (Homo sapiens, UniProt P14061).
T1 construct: For the partial purification of 17β-HSD1, the cytosolic fraction was precipitated with ammonium sulfate; from tissue; host or cells: human placenta, cytosolic fraction, ammonium sulfate precipitate
T1 sequence (P14061 1-328): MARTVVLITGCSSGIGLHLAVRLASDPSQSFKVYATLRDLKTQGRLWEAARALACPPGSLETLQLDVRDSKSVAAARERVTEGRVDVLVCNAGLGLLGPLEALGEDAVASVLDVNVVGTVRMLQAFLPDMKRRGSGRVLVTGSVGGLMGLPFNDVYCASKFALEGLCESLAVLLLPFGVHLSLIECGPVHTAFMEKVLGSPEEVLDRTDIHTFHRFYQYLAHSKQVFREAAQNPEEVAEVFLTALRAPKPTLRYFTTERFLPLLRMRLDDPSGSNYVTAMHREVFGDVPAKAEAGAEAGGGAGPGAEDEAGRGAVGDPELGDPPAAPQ
In words: Inhibition of human 17β-HSD1 (conversion of [3H]-E1 to E2, HPLC radioflow detection). The conditions noted are these: for IC50: read-out: IC50 [nM] h17β-HSD1; for inhibition at 1 µM: read-out: % inhibition h17β-HSD1 @ 1 μM; for inhibition at 0.01 µM: read-out: % inhibition h17β-HSD1 @ 10 nM.

A further assay has as its target T2, human 17β-HSD2 (Homo sapiens, UniProt P37059).
T2 construct: 17β-HSD2 was obtained from the microsomal fraction; from tissue; host or cells: human placenta, microsomal fraction
T2 sequence (P37059 1-387): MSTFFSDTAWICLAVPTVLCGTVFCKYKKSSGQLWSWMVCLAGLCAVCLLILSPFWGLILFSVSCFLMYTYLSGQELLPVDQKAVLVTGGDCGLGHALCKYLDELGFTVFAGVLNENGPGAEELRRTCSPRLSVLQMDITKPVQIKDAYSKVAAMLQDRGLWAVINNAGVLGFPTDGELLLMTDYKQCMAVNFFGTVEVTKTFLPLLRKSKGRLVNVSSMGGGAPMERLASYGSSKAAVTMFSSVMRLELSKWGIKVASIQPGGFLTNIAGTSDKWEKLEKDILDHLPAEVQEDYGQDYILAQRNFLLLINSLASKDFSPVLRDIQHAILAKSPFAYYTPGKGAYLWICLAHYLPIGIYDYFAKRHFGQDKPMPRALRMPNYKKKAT
Put plainly: Inhibition of human 17β-HSD2 (conversion of [3H]-E2 to E1). The conditions noted are these: for IC50: read-out: IC50 [nM] h17β-HSD2; for inhibition at 1 µM: read-out: % inhibition h17β-HSD2 @ 1 μM; for inhibition at 0.01 µM: read-out: % inhibition h17β-HSD2 @ 10 nM.

Another assay addresses T3, mouse 17β-HSD1 (Mus musculus, UniProt P51656).
T3 construct: made in house; host or cells: HEK293 cells, transient transfection; 1,000 g supernatant of the cell lysate
T3 sequence (P51656 1-344): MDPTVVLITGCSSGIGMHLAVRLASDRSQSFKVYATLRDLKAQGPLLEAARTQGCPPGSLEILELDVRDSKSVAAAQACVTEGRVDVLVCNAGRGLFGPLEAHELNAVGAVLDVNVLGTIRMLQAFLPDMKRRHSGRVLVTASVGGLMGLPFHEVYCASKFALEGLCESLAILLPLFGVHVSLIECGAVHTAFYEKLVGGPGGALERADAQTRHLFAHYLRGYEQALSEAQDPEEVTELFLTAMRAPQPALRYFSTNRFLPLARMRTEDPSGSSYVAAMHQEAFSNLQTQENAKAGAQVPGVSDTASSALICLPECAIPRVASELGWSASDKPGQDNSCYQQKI
Put plainly: Inhibition of mouse 17β-HSD1 (recombinant, HEK293 lysate).

For another assay, the target named is T4, mouse 17β-HSD2 (Mus musculus, UniProt P51658).
T4 construct: The pellet fractions containing the microsomal 17β-HSD2 were used for the determination of E1 formation; from tissue; host or cells: mouse liver, microsomal fraction
T4 sequence (P51658 1-381): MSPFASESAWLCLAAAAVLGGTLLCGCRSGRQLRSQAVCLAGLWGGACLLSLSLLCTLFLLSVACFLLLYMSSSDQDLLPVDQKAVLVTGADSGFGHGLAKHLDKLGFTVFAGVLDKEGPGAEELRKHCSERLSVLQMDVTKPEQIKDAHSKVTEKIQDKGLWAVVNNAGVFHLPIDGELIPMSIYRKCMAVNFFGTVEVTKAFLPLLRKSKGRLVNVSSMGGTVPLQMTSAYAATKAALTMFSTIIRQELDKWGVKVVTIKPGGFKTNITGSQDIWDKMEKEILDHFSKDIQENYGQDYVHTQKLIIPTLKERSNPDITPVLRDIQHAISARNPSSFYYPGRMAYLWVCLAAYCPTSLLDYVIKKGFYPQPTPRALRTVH
Put plainly: Inhibition of mouse 17β-HSD2 (liver microsomal fraction). The conditions noted are these: for % inhibition m17β-HSD2 @ 50 nM: 0.05 µM; for inhibition at 0.05 µM: read-out: % inhibition m17β-HSD2 @ 50 nM. Background: Liver microsomes are vesicles of endoplasmic reticulum, rich in cytochrome P450 enzymes.

[1] abbreviates: human placental cytosolic enzyme, E1 500 nM, NADH, Tables 1, 4-11.
Where [2] appears, read: read-out: % inhibition m17β-HSD1 @ 1 μM.
The mark [3] stands for this setting: read-out: % inhibition m17β-HSD2 @ 1 μM.
The mark [4] stands for this setting: read-out: Inhibition @ 1 μM m17β-HSD1.
Setting [5] is: read-out: Inhibition @ 1 μM m17β-HSD2.

The IC50 is the midpoint of a concentration-inhibition curve. For orientation: inhibition means the drop in the measured response relative to a control, in per cent.

Like-named read-outs stand apart in the source and are kept apart here.

Procedure for human 17β-HSD2: Fresh human placenta was homogenized, and cytosolic fraction and microsomes were separated by differential centrifugation at 1,000 g, 10,000 g and 150,000 g.
(§1) The conversion rate was calculated after analysis of the resulting chromatograms according to the following equation: % conversion=[% E1/(% E1+% E2)]×100
Procedure for mouse 17β-HSD2: Microsomal 17β-HSD2 fractions were obtained from mouse or rat liver. Fresh liver tissues were processed as described for the human placental 17β-HSD2 preparation. The pellet fractions containing the microsomal 17β-HSD2 were used for the determination of E1 formation.
as §1

Regarding `Cc1c(O)cccc1C(=O)c1ccc(-c2ccc(F)cc2F)s1` [B, reference compound], the IC50 on human 17β-HSD1 (setting [1]) is 3430 nM; at human 17β-HSD2, 300 nM. The inhibition at 1 µM on mouse 17β-HSD1 (setting [2]) was 5%; on mouse 17β-HSD2 (setting [3]), 18%.
In the case of `O=C(c1ccc(Br)s1)c1cc(F)c(F)c(O)c1F` [Compound 1g, (5-Bromo-thiophen-2-yl)-(2,4,5-trifluoro-3-hydroxy-phenyl)-methanone], the values for the IC50 on human 17β-HSD1 (setting [1]) and at human 17β-HSD2 were 130 nM and 27 nM, respectively. In addition, the inhibition at 1 µM at mouse 17β-HSD1 (setting [2]) stood at 11%; at mouse 17β-HSD1 (setting [4]), 11%; on mouse 17β-HSD2 (setting [3]), 44%; on mouse 17β-HSD2 (setting [5]), 44%.
On to `O=C(c1ccc(-c2cccnc2)s1)c1c(F)ccc(O)c1F` [Compound 9, (2,6-Difluoro-3-hydroxy-phenyl)-(5-pyridin-3-yl-thiophen-2-yl)-methanone], for which the inhibition at 1 µM was 57% on human 17β-HSD1, 64% on human 17β-HSD2, 14% on mouse 17β-HSD1 (setting [4]) and 23% at mouse 17β-HSD2 (setting [5]).
As to `COc1ccc(-c2sc(C(=O)c3c(F)ccc(O)c3F)cc2C)cc1Cl` [Compound 13, [5-(3-Chloro-4-methoxy-phenyl)-4-methyl-thiophen-2-yl]-(2,6-difluoro-3-hydroxy-phenyl)-methanone], the IC50 was 5.5 nM at human 17β-HSD1 (setting [1]) and 52 nM on human 17β-HSD2. Further, the values for the inhibition at 1 µM at mouse 17β-HSD1 (setting [4]) and at mouse 17β-HSD2 (setting [5]) were 25% and 65%, respectively.
Turning to `O=C(c1ccc(-c2cc(F)c(OC(F)F)c(F)c2)s1)c1c(F)ccc(O)c1F` [Compound 17, (2,6-Difluoro-3-hydroxy-phenyl)-[5-(4-difluoromethoxy-3,5-difluoro-phenyl)-thiophen-2-yl]-methanone], the values for the IC50 at human 17β-HSD1 (setting [1]) and on human 17β-HSD2 were 7 nM and 36 nM, respectively. The inhibition at 1 µM on mouse 17β-HSD1 (setting [4]) was 47%; at mouse 17β-HSD2 (setting [5]) it was 74%.
Turning to `O=C(c1ccc(-c2cccc(Cl)c2O)s1)c1c(F)ccc(O)c1F` [Compound 22, [5-(3-Chloro-2-hydroxy-phenyl)-thiophen-2-yl]-(2,6-difluoro-3-hydroxy-phenyl)-methanone], the results for the IC50 on human 17β-HSD1 and on human 17β-HSD2 were 27 nM and 29 nM, respectively. Further, the inhibition at 1 µM is 46% on mouse 17β-HSD1 (setting [4]) and 82% at mouse 17β-HSD2 (setting [5]).
The like results for `COc1c(Cl)cc(-c2ccc(C(=O)c3c(F)ccc(O)c3F)s2)cc1CN1CCN(C(C)=O)CC1` [Compound 28, 1-(4-{3-Chloro-5-[5-(2,6-difluoro-3-hydroxy-benzoyl)-thiophen-2-yl]-2-methoxy-benzyl}-piperazin-1-yl)-ethanone] were, in that order, 1.4 nM, 21 nM, 37% and 45%.
In the case of `COc1c(Cl)cc(-c2ccc(C(=O)c3c(F)ccc(OC(C)=O)c3F)s2)cc1Cn1ccnn1` [Compound 31a, Acetic acid 3-[5-(3-chloro-4-methoxy-5-[1,2,3]triazol-1-ylmethyl-phenyl)-thiophene-2-carbonyl]-2,4-difluoro-phenylester], the inhibition at 1 µM at human 17β-HSD1 turned out to be 28%; on human 17β-HSD2, 32%; on mouse 17β-HSD1 (setting [4]), 20%.
In the case of `O=C(c1ccc(-c2cncc(F)c2)s1)c1cc(F)c(F)c(O)c1F` [Compound 39, [5-(5-Fluoro-pyridin-3-yl)-thiophen-2-yl]-(2,4,5-trifluoro-3-hydroxy-phenyl)-methanone], the IC50 came to 59 nM on human 17β-HSD1 (setting [1]) and 18 nM at human 17β-HSD2. The inhibition at 1 µM on mouse 17β-HSD1 (setting [4]) was 9%; at mouse 17β-HSD2 (setting [5]), 24%.
As to `O=C(c1ccc(-c2ccc(O)c(F)c2)s1)c1cc(F)c(F)c(O)c1F` [Compound 42, (5-(3-Fluoro-4-hydroxyphenyl)thiophen-2-yl)(2,4,5-trifluoro-3-hydroxyphenyl)methanone], the IC50 on human 17β-HSD1 (setting [1]) was 2.5 nM; at human 17β-HSD2, 3 nM. For the same molecule, the inhibition at 1 µM on mouse 17β-HSD1 (setting [4]) amounted to 46%; on mouse 17β-HSD2 (setting [5]), 84%.
On to `O=C(c1ccc(-c2ccc3cc[nH]c3c2)s1)c1cc(F)c(F)c(O)c1F` [Compound 43, (5-(1H-Indol-6-yl)thiophen-2-yl)(2,4,5-trifluoro-3-hydroxyphenyl)methanone], for which the IC50 on human 17β-HSD1 (setting [1]) stood at 28.8 nM; on human 17β-HSD2 it was 7.5 nM; at mouse 17β-HSD1 (recombinant mouse enzyme, E1 10 nM, NADPH, read-out: IC50 m17β-HSD1), 1.14 µM; on mouse 17β-HSD2 (read-out: IC50 m17β-HSD2), 0.113 µM.
Consider `O=C(c1ccc(-c2cc(Cl)c(O)c(Cl)c2)s1)c1cc(F)c(F)c(O)c1F` [Compound 49, (5-(3,5-Dichloro-4-hydroxyphenyl)thiophen-2-yl)(2,4,5-trifluoro-3-hydroxyphenyl)methanone], for which the IC50 on human 17β-HSD1 (setting [1]) came out at 9.1 nM; on human 17β-HSD2, 11.2 nM. The inhibition at 1 µM on mouse 17β-HSD1 (setting [4]) is 13.8%.
On to `Cc1cc(-c2ccc(C(=O)c3cc(F)cc(O)c3C)s2)cc(C)c1O` [Compound 71, (5-(4-Hydroxy-3,5-dimethylphenyl)thiophen-2-yl)(5-fluoro-3-hydroxy-2-methylphenyl)methanone], for which the IC50 on human 17β-HSD1 (setting [1]) is 12.6 nM. Besides, at human 17β-HSD2, the IC50 is 50 nM. In addition, at mouse 17β-HSD2, the “% inhibition m17β-HSD2 @ 50 nM” value is 79% @ 50 nM and the inhibition at 0.05 µM was 79%.
On to `Cc1cc(-c2ccc(C(=O)c3cc(F)c(F)c(O)c3C)s2)cc(C)c1O` [Compound 72, (4,5-Difluoro-3-hydroxy-2-methylphenyl)(5-(4-hydroxy-3,5-dimethylphenyl)thiophen-2-yl)methanone], for which the IC50 is 44 nM on human 17β-HSD1 (setting [1]) and 159 nM on human 17β-HSD2. At mouse 17β-HSD2, the “% inhibition m17β-HSD2 @ 50 nM” value stood at 22% @ 50 nM. Moreover, the inhibition at 0.05 µM at mouse 17β-HSD2 stood at 22%.
Take `NS(=O)(=O)c1ccc(-c2ccc(C(=O)c3c(F)ccc(O)c3F)s2)cc1` [Compound 75, 4-(5-(2,6-Difluoro-3-hydroxybenzoyl)thiophen-2-yl)benzenesulfonamide]: the results for the inhibition at 0.01 µM at human 17β-HSD1 and on human 17β-HSD2 were 18% and 54%, respectively. For the same molecule, the inhibition at 0.05 µM on mouse 17β-HSD2 was 10%.
Take `NS(=O)(=O)c1cccc(-c2ccc(C(=O)c3c(F)ccc(O)c3F)s2)c1` [Compound 76, 3-(5-(2,6-Difluoro-3-hydroxybenzoyl)thiophen-2-yl)benzenesulfonamide]: the inhibition at 0.01 µM at human 17β-HSD1 is 34%; at human 17β-HSD2, 26%. On mouse 17β-HSD2, the inhibition at 0.05 µM turned out to be 1.8%.
On to `COc1c(Cl)cc(-c2ccc(C(=O)c3c(F)ccc(O)c3Cl)s2)cc1Cl` [Compound 78, (2-Chloro-6-fluoro-3-hydroxyphenyl)(5-(3,5-dichloro-4-methoxyphenyl)thiophen-2-yl)methanone], for which the figures for the inhibition at 0.01 µM at human 17β-HSD1 and at human 17β-HSD2 were 41% and 54%, respectively. Further, on mouse 17β-HSD2, the inhibition at 0.05 µM is 76%.

The values above are taken from patent US9884839B2, “Inhibitors of 17Beta-hydroxysteroid dehydrogenases type 1 and type 2” (ElexoPharm GmbH, priority 2014, dated 2018).
